{"source": "patent US8133911B2", "about": "“(R)-4-(heteroaryl) phenylethyl derivatives and pharmaceutical compositions containing them” (Dompe S.p.A, priority 2007, dated 2012)", "system": "PMNs C5a induced chemotaxis", "test": "Inhibition of C5a-induced chemotaxis of human PMNs", "type": "cell-based", "conditions": "1 h, read-out: C5a (% inhibition at 10^−8 M)", "description": "The compounds prepared in Example 2 were evaluated in vitro for their ability to inhibit chemotaxis of polymorphonucleate leukocytes (hereinafter referred to as PMNs) and monocytes induced by the fractions of the complement C5a and C5a-desArg. For this purpose, to isolate the PMNs from heparinized human blood, taken from healthy adult volunteers, mononucleates were removed by means of sedimentation on dextran (according to the procedure disclosed by W. J. Ming et al., J. Immunol., 138, 1469, 1987) and red blood cells by a hypotonic solution. The cell vitality was calculated by exclusion with Trypan blue, whilst the ratio of the circulating polymorphonucleates was estimated on the cytocentrifugate after staining with Diff Quick.\nHuman recombinant fractions C5a and C5a-desArg (Sigma) were used as stimulating agents in the chemotaxis experiments, giving practically identical results.\nThe lyophilized C5a was dissolved in a volume of HBSS containing 0.2% bovin serum albumin BSA so thus to obtain a stock solution having a concentration of 10^−5 M to be diluted in HBSS to a concentration of 10^−9 M, for the chemotaxis assays.\nIn the chemotaxis experiments, the PMNs were incubated with the compounds of the invention of formula (I) for 15′ at 37° C. in an atmosphere containing 5% CO2. The chemotactic activity of the C5a was evaluated on human circulating polymorphonucleates (PMNs) resuspended in HBSS at a concentration of 1.5×10^6 PMNs per ml. During the chemotaxis assay (according to W. Falket et al., J. Immunol. Methods, 33, 239, 1980) PVP-free filters with a porosity of 5 μm and microchambers suitable for replication were used.\nThe compounds of Example 2 were evaluated at a concentration ranging between 10^−7 and 10^−10 M; for this purpose they were added, at the same concentration, both to the lower pores and the upper pores of the microchamber. The wells in the lower part contain the solution of C5a or the simple carrier, those in the upper part contain the suspension of PMNs.\nInhibition of C5a-induced chemotactic activity by the individual compounds was evaluated by incubating the microchamber for the chemotaxis for 60 min at 37° C. in an atmosphere containing 5% CO2.", "key": {"[1]": {"conditions": "compound 10^−8 M, human PMNs, C5a 10^−9 M, 60 min at 37° C."}}, "note": "Where two headings read alike, the source gives them in different places.", "data": [{"smiles": "C[C@H](c1ccc(Nc2nc(C(F)(F)F)cs2)cc1)c1nnn[nH]1", "note": "[Compound 1, N-{4-[(1R)-1-(1H-tetrazol-5-yl)ethyl]phenyl}-4-(trifluoromethyl)-1,3-thiazol-2-amine]", "values": [{"measurement": "inhibition at 0.01 µM", "setting": "[1]", "value": "60 ± 1", "unit": "%"}]}, {"smiles": "Cc1csc(Nc2ccc([C@@H](C)c3nnn[nH]3)cc2)n1", "note": "[Compound 2, 4-methyl-N-{4-[(1R)-1-(1H-tetrazol-5-yl)ethyl]phenyl}-1,3-thiazol-2-amine]", "values": [{"measurement": "inhibition at 0.01 µM", "setting": "[1]", "value": "45 ± 3", "unit": "%"}]}, {"smiles": "C[C@H](c1ccc(Nc2nc(C(C)(C)C)cs2)cc1)c1nnn[nH]1", "note": "[Compound 3, 4-tert-butyl-N-{4-[(1R)-1-(1H-tetrazol-5-yl)ethyl]phenyl}-1,3-thiazol-2-amine]", "values": [{"measurement": "inhibition at 0.01 µM", "setting": "[1]", "value": "42 ± 8", "unit": "%"}]}, {"smiles": "C[C@H](c1ccc(Nc2nccs2)cc1)c1nnn[nH]1", "note": "[Compound 4, N-{4-[(1R)-1-(1H-tetrazol-5-yl)ethyl]phenyl}-1,3-thiazol-2-amine]", "values": [{"measurement": "inhibition at 0.01 µM", "setting": "[1]", "value": "39 ± 3", "unit": "%"}]}, {"smiles": "C[C@H](c1ccc(Nc2nc(C(F)(F)F)co2)cc1)c1nnn[nH]1", "note": "[Compound 5, N-{4-[(1R)-1-(1H-tetrazol-5-yl)ethyl]phenyl}-4-(trifluoromethyl)-1,3-oxazol-2-amine]", "values": [{"measurement": "inhibition at 0.01 µM", "setting": "[1]", "value": "55 ± 1", "unit": "%"}]}, {"smiles": "Cc1coc(Nc2ccc([C@@H](C)c3nnn[nH]3)cc2)n1", "note": "[Compound 6, 4-methyl-N-{4-[(1R)-1-(1H-tetrazol-5-yl)ethyl]phenyl}-1,3-oxazol-2-amine]", "values": [{"measurement": "inhibition at 0.01 µM", "setting": "[1]", "value": "51 ± 7", "unit": "%"}]}, {"smiles": "C[C@H](c1ccc(Nc2nc(C(F)(F)F)cs2)cc1)c1ccnn1O", "note": "[Compound 7, 5-[(1R)-1-(4-{[4-(trifluoromethyl)-1,3-thiazol-2-yl]amino}phenyl)ethyl]-1H-pyrazol-1-ol]", "values": [{"measurement": "inhibition at 0.01 µM", "setting": "[1]", "value": "38 ± 6", "unit": "%"}]}, {"smiles": "Cc1cnn(O)c1[C@H](C)c1ccc(Nc2nc(C(F)(F)F)cs2)cc1", "note": "[Compound 8, 4-methyl-5-[(1R)-1-(4-{[4-(trifluoromethyl)-1,3-thiazol-2-yl]amino}phenyl)ethyl]-1H-pyrazol-1-ol]", "values": [{"measurement": "inhibition at 0.01 µM", "setting": "[1]", "value": "48 ± 5", "unit": "%"}]}, {"smiles": "C[C@H](c1ccc(Nc2nc(C(F)(F)F)cs2)cc1)c1cnnn1O", "note": "[Compound 9, 5-[(1R)-1-(4-{[4-(trifluoromethyl)-1,3-thiazol-2-yl]amino}phenyl)ethyl]-1H-1,2,3-triazol-1-ol]", "values": [{"measurement": "inhibition at 0.01 µM", "setting": "[1]", "value": "44 ± 1", "unit": "%"}]}, {"smiles": "C[C@H](c1ccc(Nc2nc(C(F)(F)F)cs2)cc1)c1cc(O)no1", "note": "[Compound 10, 5-[(1R)-1-(4-{[4-(trifluoromethyl)-1,3-thiazol-2-yl]amino}phenyl)ethyl]isoxazol-3-ol]", "values": [{"measurement": "inhibition at 0.01 µM", "setting": "[1]", "value": "56 ± 1", "unit": "%"}]}, {"smiles": "Cc1c(O)noc1[C@H](C)c1ccc(Nc2nc(C(F)(F)F)cs2)cc1", "note": "[Compound 11, 4-methyl-5-[(1R)-1-(4-{[4-(trifluoromethyl)-1,3-thiazol-2-yl]amino}phenyl)ethyl]isoxazol-3-ol]", "values": [{"measurement": "inhibition at 0.01 µM", "setting": "Homo sapiens", "value": "45 ± 4", "unit": "%"}]}, {"smiles": "C[C@H](c1ccc(Nc2nc(C(F)(F)F)cs2)cc1)c1cc(O)ns1", "note": "[Compound 12, 5-[(1R)-1-(4-{[4-(trifluoromethyl)-1,3-thiazol-2-yl]amino}phenyl)ethyl]isothiazol-3-ol]", "values": [{"measurement": "inhibition at 0.01 µM", "setting": "[1]", "value": "45 ± 3", "unit": "%"}]}, {"smiles": "C[C@H](c1ccc(Nc2nc(C(F)(F)F)cs2)cc1)c1nonc1O", "note": "[Compound 13, 4-[(1R)-1-(4-{[4-(trifluoromethyl)-1,3-thiazol-2-yl]amino}phenyl)ethyl]-1,2,5-oxadiazol-3-ol]", "values": [{"measurement": "inhibition at 0.01 µM", "setting": "[1]", "value": "51 ± 4", "unit": "%"}]}, {"smiles": "C[C@H](c1ccc(Nc2nc(C(F)(F)F)cs2)cc1)c1nsnc1O", "note": "[Compound 14, 4-[(1R)-1-(4-{[4-(trifluoromethyl)-1,3-thiazol-2-yl]amino}phenyl)ethyl]-1,2,5-thiadiazol-3-ol]", "values": [{"measurement": "inhibition at 0.01 µM", "setting": "[1]", "value": "60 ± 9", "unit": "%"}]}, {"smiles": "C[C@H](c1ccc(Nc2nc(C(F)(F)F)cs2)cc1)c1ncnn1O", "note": "[Compound 15, 5-[(1R)-1-(4-{[4-(trifluoromethyl)-1,3-thiazol-2-yl]amino}phenyl)ethyl]-1H-1,2,4-triazol-1-ol]", "values": [{"measurement": "inhibition at 0.01 µM", "setting": "[1]", "value": "43 ± 1", "unit": "%"}]}]}
